Where “and” joins values, the source holds several entries; their conditions need not be identical. Equal values may be shown once.
Columns and labels:
in vitro = conditions: PAMPA, PAMPA-BBB
Protocol: The parallel artificial membrane permeability assay for the blood–brain barrier (PAMPA-BBB) [41] was used to assess the in vitro brain permeability of the new compounds. For the assay, the compounds were dissolved in mixtures of PBS and ethanol (70:30).

[1] = Plasma stability, human plasma; assay type: in vitro ADME; conditions: 37 °C; for remaining at 1 h, 5 μM: read-out: Plasma Stability % Remaining Compound, human, 1 h; for remaining at 6 h, 5 μM: read-out: Plasma Stability % Remaining Compound, human, 6 h
Aβ42 aggregation = target: T1, Aβ42 aggregation (Homo sapiens, UniProt P05067); assay: Aβ42 aggregation inhibition in genetically modified E. coli cells (Th-S fluorescence); assay type: cell-based, Escherichia coli; conditions: for inhibition at 10 µM: live E. coli cells overexpressing Aβ42, read-out: Aβ42 Aggregation % inh. @10 µM
T1 construct: expressed in transfected cells; host or cells: E. coli BL21 (DE3) bearing pET28a-Aβ42
Protocol: For Aβ42 overexpression, M9 minimal medium (10 mL) containing kanamycin (50 μg/mL) was added to a colony of E. coli BL21 (DE3) competent cells, bearing the pET28a plasmid (Novagen, Inc., Madison, WI, USA), which contains the DNA sequence encoding for Aβ42. After overnight culture, the volume necessary to obtain a 1:500 dilution was added to fresh M9 minimal medium that contained kanamycin (50 μg/mL) and thioflavin-S (Th-S, 250 µM).
For Aβ42 overexpression, the corresponding E. coli cell cultures were kept growing overnight (37 °C; 250 rpm) until they reached an OD600 = 0.6. These cultures (980 μL) were added to a mixture of 10 μL of a solution of the new compounds in DMSO and 10 μL of 100 mM isopropyl 1-thio-β-D-galactopyranoside (IPTG), to reach a final compound concentration of 10 μM. The same procedure was used for tau overexpression but employing 10 μL of 25% arabinose instead of IPTG. The resulting E. coli cultures were kept growing overnight (37 °C; 1400 rpm) using an Eppendorf Thermomixer (Hamburg, Germany). To prepare a negative control for the assay, showing the highest amount of the amyloidogenic protein, the same quantity of DMSO, without the compounds to be tested, was added to the sample. With the double purpose of obtaining positive controls devoid of the amyloidogenic proteins and assessing the potential intrinsic toxicity of the new compounds, we also prepared samples that had not been treated with either IPTG or arabinose (non-induced samples).
To assess the inhibitory activity of compounds 4–7 on Aβ42 and tau aggregation within E. coli cells, a fluorescence assay was employed, using Th-S ([…] stock solution, T1892, Sigma, St. Louis, MO, USA) in double-distilled water (Milli-Q system, Millipore, Bay City, MI, USA) and an Aminco Bowman Series 2 luminescence spectrophotometer (Aminco-Bowman AB2, SLM Aminco, Rochester, NY, USA), working at 25 °C in the wavelength range of 460–600 nm, with λex = 445 nm, slit widths of 4 nm, and λem = 485 nm. The results are given as the average of nine independent experiments, each performed in triplicate.

[2] = Fish embryo acute toxicity (FET) test in zebrafish embryos; assay type: in vivo; conditions: in vivo, other: embryos exposed by immersion in the test solution, pH 7.4, 72 h of exposure, read-out: LC50 (CI95)
Protocol: Test solutions were freshly prepared for each experiment and were renewed every 24 h. The maximum tested compound concentration was 100 µM and four additional concentrations were also prepared by applying a 1:2 dilution factor. A 1% DMSO solution was used as a vehicle control.
Six-well plates were incubated at 26 ± 1 °C under a 14:10 light:dark cycle for 72 h. To assess the potential lethality of the new compounds, we followed, every 24 h, the four parameters that are outlined in the OECD Guideline No. 236: embryo coagulation, lack of somite formation, non-detachment of the tail, and absence of a heartbeat (from 48 h onward). The percentage of lethality at each concentration that was tested for the new compounds was recorded and expressed as mean ± SEM from three or more independent experiments. […] LOAEC values were determined through an ANOVA test with Bonferroni’s post-hoc test for multiple comparisons (significance threshold: p < 0.05).

[3] = target: T2, human recombinant BACE-1 (hBACE-1) (Homo sapiens, UniProt P56817); assay: In vitro hBACE-1 inhibition (fluorometric method); assay type: biochemical; conditions: for inhibition at 15 µM: read-out: hBACE-1 % inh. @15 µM
T2 construct: purchased Invitrogen, Carlsbad, CA, USA
Protocol: The inhibition of human recombinant BACE-1 (hBACE-1) (Invitrogen, Carlsbad, CA, USA) by hybrids 4–7 was evaluated by a fluorometric method. The substrate (Panvera peptide, 10 μL, 250 nM final concentration) was added to a solution (10 μL) of hybrids 4–7 or buffer in control wells (20 mM sodium acetate at pH 4.5, with 0.1% w/v CHAPS). After the addition of the enzyme (10 μL, 12.91 mU), the assay solution was incubated for 1 h at 37 °C. Thereafter, STOP solution (10 μL, 2.5 M sodium acetate) was added and the fluorescence was read at […]. The DMSO concentration in the assay solution was kept <5% (v/v) to ensure no significant loss of BACE-1 activity. The background signal, determined in control wells with all the components of the assay but BACE-1, was subtracted. The fluorescence intensities in the presence of increasing concentrations or in the absence of hybrids 4–7 were compared to calculate the percent of enzyme inhibition produced by the compounds, by applying the following expression: 100 − (IFi/IFo × 100), in which IFi and IFo are the fluorescence intensities in the presence and in the absence of the compounds, respectively. Additionally, the IC50 values were calculated (GraphPad Prism 4.03 software, GraphPad Software Inc., San Diego, CA, USA) and are given as the mean ± SEM of at least two experiments, each performed in triplicate.

[4] = Plasma stability, rat plasma; assay type: in vitro ADME; conditions: 37 °C; for remaining at 1 h, 5 μM / remaining at 6 h, 5 μM: rat, plasma; for remaining at 1 h, 5 μM: read-out: Plasma Stability % Remaining Compound, rat, 1 h; for remaining at 6 h, 5 μM: read-out: Plasma Stability % Remaining Compound, rat, 6 h
Protocol: The plasma stability of the new compounds was tested using in human, mouse, and rat plasma (Seralab). One hundred μL of 5 μM solutions of the new compounds in plasma were plated and incubated at 37 °C for 0, 60, 120, and 360 min, and then treated with 300 μL of acetonitrile and centrifuged (4000× g; 60 min; 4 °C). Sample quantification was performed by UPLC/MS/MS analysis of the resulting supernatant using a UPLC QSM Waters Acquity apparatus, equipped with a Waters ACQUITY BEH C18 1.7 μm 2.1 × 50 mm column, eluting with 0.1% formic acid in water or in acetonitrile, with a flow of 0.6 mL/min. The gradient indicated in Table 1 was used in this assay.
Compound concentration was calculated from the MS peak areas and expressed as the percentage of remaining compound at the different tested times.

human serum BChE (hBChE) = target: T3, human serum BChE (hBChE) (Homo sapiens, UniProt P06276); assay: biochemical; conditions: for IC50: human serum BChE, Ellman method, mean ± standard error; for increase in hBChE inhibitory activity relative to hybrid 3: relative to dihydroxyanthraquinone hybrid 3
T3 construct: human serum BChE (hBChE); purchased Sigma (Milan, Italy); host or cells: human serum
Protocol: The stock and assay solutions were prepared as follows:
Stock hBChE solution: solution of the lyophilized powder in 0.1% aq. gelatin.
Stock solutions of the new compounds: 1 mM solutions in methanol, with further dilutions in this solvent to the desired concentrations.

[5] = Brain permeability class, Table 4
[6] = Brain Permeability Pe, mean ± SD
[7] = compound at 15 µM (parenthesized values)

T3 sequence (P06276 29-602): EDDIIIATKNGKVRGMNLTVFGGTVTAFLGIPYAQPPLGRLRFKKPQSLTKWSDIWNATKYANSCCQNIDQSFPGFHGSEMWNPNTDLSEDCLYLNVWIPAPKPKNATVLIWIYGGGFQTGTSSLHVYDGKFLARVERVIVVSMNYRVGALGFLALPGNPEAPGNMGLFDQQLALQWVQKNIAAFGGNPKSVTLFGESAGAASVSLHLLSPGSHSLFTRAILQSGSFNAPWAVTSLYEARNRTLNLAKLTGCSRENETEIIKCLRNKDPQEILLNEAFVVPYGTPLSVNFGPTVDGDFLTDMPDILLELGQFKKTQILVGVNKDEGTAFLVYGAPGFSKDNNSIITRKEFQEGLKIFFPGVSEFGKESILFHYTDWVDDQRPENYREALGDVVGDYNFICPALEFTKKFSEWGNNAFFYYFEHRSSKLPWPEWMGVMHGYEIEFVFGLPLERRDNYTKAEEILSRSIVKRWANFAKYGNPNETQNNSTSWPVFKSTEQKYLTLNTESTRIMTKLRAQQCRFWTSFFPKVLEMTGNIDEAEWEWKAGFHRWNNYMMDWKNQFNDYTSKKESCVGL
T2 sequence (P56817 46-501): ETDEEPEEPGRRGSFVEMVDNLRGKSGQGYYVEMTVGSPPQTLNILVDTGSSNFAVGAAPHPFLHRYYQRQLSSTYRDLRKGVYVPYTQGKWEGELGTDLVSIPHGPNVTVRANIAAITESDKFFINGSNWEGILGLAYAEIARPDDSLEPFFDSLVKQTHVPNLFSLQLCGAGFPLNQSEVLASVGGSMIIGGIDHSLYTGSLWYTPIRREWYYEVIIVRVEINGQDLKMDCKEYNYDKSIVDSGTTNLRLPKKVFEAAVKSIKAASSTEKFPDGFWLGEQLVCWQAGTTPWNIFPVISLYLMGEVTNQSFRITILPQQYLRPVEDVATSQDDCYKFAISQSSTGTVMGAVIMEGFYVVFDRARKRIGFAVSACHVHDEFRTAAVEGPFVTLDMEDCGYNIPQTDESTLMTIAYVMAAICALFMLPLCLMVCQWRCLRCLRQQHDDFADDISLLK
T1 sequence (P05067 672-713): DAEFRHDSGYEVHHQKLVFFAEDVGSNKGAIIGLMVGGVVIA

Structure (SMILES) | Papp (in vitro; [5]) [×10⁻⁶ cm/s] | remaining at 1 h, 5 μM [1] [%] | % hydrolyzed in human plasma after 6 h ([1]; 6 h) [%] | inhibition at 10 µM (Aβ42 aggregation) [%] | LC50 at 72 h [2] [µM] | IC50 [3] [µM] | remaining at 1 h, 5 μM [4] [%] | remaining at 6 h, 5 μM ([4]; 6 h) [%] | IC50 (human serum BChE (hBChE)) | Papp (in vitro; [6]) [×10⁻⁶ cm/s] | remaining at 6 h, 5 μM ([1]; 6 h) [%] | increase in hBChE inhibitory activity relative to hybrid 3 (human serum BChE (hBChE)) | inhibition at 15 µM [3, 7] [%] | Aβ42 Aggregation % inh. @10 µM (Aβ42 aggregation; live E. coli cells overexpressing Aβ42) [%] | hBACE-1 % inh. @15 µM ([3]; compound at 15 µM (parenthesized values), 15 µM) | Plasma Stability % Remaining Compound, rat, 6 h ([4]; 6 h, 5 μM) [%]
CC1=CC2Cc3nc4cc(Cl)ccc4c(NCCCCCCCCCNC(=O)c4cc(O)c5c(c4)C(=O)c4cccc(O)c4C5=O)c3C(C1)C2 (stereo not shown) [Compound 3] | > 5.2 | 100 | 15.6 | 74.2 ± 1.6 | > 100 | 1.5 ± 0.38 | 98 | 67.9 | – | – | – | – | – | – | – | –
CC1=CC2Cc3nc4cc(Cl)ccc4c(NCCCCCCCCCNC(=O)c4ccc5c(c4)C(=O)c4ccccc4C5=O)c3C(C1)C2 (stereo not shown) [Compound 4, N-{9-[(3-Chloro-6,7,10,11-tetrahydro-9-methyl-7,11-methanocycloocta[b]quinolin-12-yl)amino]nonyl}anthraquinone-2-carboxamide] | > 5.2 | 94.2 | – | 73.3 ± 3.6 | > 100 | 2.89 ± 0.5 | 100 | 77.2 | 1.25 ± 0.13 µM | 9.2 ± 1.2 | 97.6 | – | – | – | – | –
CC1=CC2Cc3nc4cc(Cl)ccc4c(NCCCCCCCCCNC(=O)c4ccc5c(c4)C(=O)c4ccccc4-5)c3C(C1)C2 (stereo not shown) [Compound 5, N-{9-[(3-Chloro-6,7,10,11-tetrahydro-9-methyl-7,11-methanocycloocta[b]quinolin-12-yl)amino]nonyl}-9-fluorenone-2-carboxamide] | > 5.2 | 88.5 | – | 69.8 ± 1.2 | > 100 | 5.63 ± 0.01 | 93.6 | 84.7 | 0.883 ± 0.055 µM | 6.2 ± 0.8 | 80.4 | – | – | – | – | –
CC1=CC2Cc3nc4cc(Cl)ccc4c(NCCCCCCCCCNC(=O)c4cccc(C(=O)c5ccccc5)c4)c3C(C1)C2 (stereo not shown) [Compound 6, 3-Benzoyl-N-{9-[(3-chloro-6,7,10,11-tetrahydro-9-methyl-7,11-methanocycloocta[b]quinolin-12-yl)amino]nonyl}benzamide] | > 5.2 | 100 | – | 72.6 ± 2.7 | 40.1 | ≤ 15 | 96 | 92.4 | 0.0165 ± 0.0019 µM | 7.4 ± 0.3 | 90.8 | 40–50 fold | 61.5 | – | – | –
CC(=O)c1cccc(C(=O)NCCCCCCCCCNc2c3c(nc4cc(Cl)ccc24)CC2C=C(C)CC3C2)c1 (stereo not shown) [Compound 7, 3-Acetyl-N-{9-[(3-chloro-6,7,10,11-tetrahydro-9-methyl-7,11-methanocycloocta[b]quinolin-12-yl)amino]nonyl}benzamide] | > 5.2 | 100 | – | 73 | > 100 | ≤ 15 | 98.9 | 86 | 0.013 µM and 0.0127 µM | 16.5 ± 1.1 | 100 | 40–50 fold | 48 | 73.1 ± 4.8 | (48.1 ± 0.3) % | 85.8

— PMC11359831, “Stepwise Structural Simplification of the Dihydroxyanthraquinone Moiety of a Multitarget Rhein-Based Anti-Alzheimer Lead to Improve Drug Metabolism and Pharmacokinetic Properties” (Pharmaceutics, 2024)
